For this assay, the target named is T1, Smoothened (Smo) (Homo sapiens, UniProt Q99835).
T1 construct: wild-type human Smo overexpressed in C3H10T1/2 cells
As to the kind of experiment: BODIPY-cyclopamine competition binding on Smo-expressing cells, flow cytometry. The class given is cell-based.

T1 sequence (Q99835 28-787): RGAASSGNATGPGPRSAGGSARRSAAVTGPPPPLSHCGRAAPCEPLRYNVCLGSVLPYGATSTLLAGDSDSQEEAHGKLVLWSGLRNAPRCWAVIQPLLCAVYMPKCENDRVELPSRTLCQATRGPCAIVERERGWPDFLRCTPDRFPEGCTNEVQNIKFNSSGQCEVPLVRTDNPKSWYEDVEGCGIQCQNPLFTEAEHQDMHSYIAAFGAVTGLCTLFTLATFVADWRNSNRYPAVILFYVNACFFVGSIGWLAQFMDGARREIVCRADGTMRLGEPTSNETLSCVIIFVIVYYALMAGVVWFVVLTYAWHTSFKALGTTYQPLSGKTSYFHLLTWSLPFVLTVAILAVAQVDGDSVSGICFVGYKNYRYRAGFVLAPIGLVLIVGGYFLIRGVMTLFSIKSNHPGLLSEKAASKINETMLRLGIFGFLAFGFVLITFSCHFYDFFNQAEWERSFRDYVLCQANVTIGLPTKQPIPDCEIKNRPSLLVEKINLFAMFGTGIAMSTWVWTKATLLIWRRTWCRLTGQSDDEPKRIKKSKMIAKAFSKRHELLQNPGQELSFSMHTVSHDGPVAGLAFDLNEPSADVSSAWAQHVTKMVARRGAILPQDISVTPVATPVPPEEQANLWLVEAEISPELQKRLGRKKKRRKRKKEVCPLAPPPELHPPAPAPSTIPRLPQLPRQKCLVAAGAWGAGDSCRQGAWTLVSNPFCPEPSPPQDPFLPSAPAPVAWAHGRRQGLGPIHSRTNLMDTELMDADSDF

Compound `CC1=C2C[C@H]3[C@@H](CC[C@@H]4C[C@H](NS(C)(=O)=O)CC[C@@]43C)[C@@H]2CC[C@@]2(C1)O[C@@H]1C[C@H](C)CN[C@H]1[C@H]2C` [IPI-926] registered an EC50 of 1 nM.

The record behind these values is article PMC3946503, “Impact of the Smoothened Inhibitor, IPI-926, on Smoothened Ciliary Localization and Hedgehog Pathway Activity” (PLoS ONE, 2014).
